Laboratory results from patent US11007256B2, “Synthetic lipopeptide vaccines and immunotherapeutics” (The University of Toledo, priority 2016, dated 2021).
Where no end group is shown, it is not given here.

Key:
[1] = system: GAD 546-554 specific CD8 T cell clone; assay: Cytokine release of GAD 546-554 specific CD8 T cell clone incubated with APLs and antigen presenting cells; format: cell-based, mouse; conditions: CD8 T cell clone incubated with APL and antigen presenting cells
Description: Immune cells protect the human body from foreign antigens. However, in autoimmune diseases like type 1 diabetes (T1D), autoreactive T cells recognize pancreatic beta cell related proteins as antigens, leading to beta cell destruction. An altered peptide ligand (APL) strategy can be used to target autoreactive T cells in T1D. GAD 546-554 (SEQ ID NO: 7) is reported as a dominant epitope recognized by autoreactive T cells, in the non-obese diabetic mouse model, that can cause destruction of beta cells. Nine APLs which have single alanine substitution, at different positions of GAD 546-554 (SEQ ID NO: 7), were screened. When GAD 546-554 (SEQ ID NO: 7) specific CD8 T cell clone was incubated with different APLs and antigen presenting cells, APL9 (SEQ ID NO: 8) inhibited both IFN-γ and TNF-α release. In order to improve antigen presentation and endosomal escape of APL9 (SEQ ID NO: 8), a bioconjugate platform of a liposome containing a Formula I bioconjugate of APL9 (SEQ ID NO: 8) and the toll like receptor ligand, Pam3CysSK4 (“CysSK4” disclosed as SEQ ID NO: 16), as well as antibody against macrophage and dendritic cell protein, F4/80, was developed. This immunotherapy strategy is beneficial to prevent T1D by rendering autoreactive immune cells more tolerant of beta cells. […]

[2] = system: GAD 546-554 specific CD8 T cell clone (CTL.546L); assay: Interferon gamma release of CTL.546L co-cultured with bioconjugate-treated M12C3.B7 APCs; format: cell-based, mouse; conditions: compared with free peptide GAD 546-544; M12C3.B7 APCs treated 3 hours, co-culture 24 hours (FIG. 29)
Protocol: M12C3B7, B cell line, was used as an APC. […] Later, these cells were co-cultured with CTL.546.L (2×10^5 cells/well) for 24 hours. After 24 hours of incubation, supernatants were collected for studying the interferon gamma release.
Co-culture was incubated for 24 hours at 37° C. Supernatants were used to study the IFNγ release.

[3] = system: Splenocytes; assay: T stimulation assay with IFNγ secreting ELISPOT kit on splenocytes of treated NOD mice; format: cell-based, NOD female mice
Protocol: (FIG. 30.) Further, this system was studied in non-diabetic non-obese diabetic model (NOD). […] These mice were sacrificed and their spleens were collected for performing T stimulation assay using IFNγ secreting ELISPOT kit. […] After 36 hours of incubation, IFNγ secreting cells were looked for.

## SYQPLGDAV [APL9]
[1]
  IFN-γ release: inhibited
  TNF-α release: inhibited

## bioconjugate 546-554: Formula I bioconjugate of GAD 546-554 (SYQPLGDKV, SEQ ID NO: 7) with Pam3CysSK4 (also: Formula I bioconjugate with Pam3CysSK4, attachment site not given here)
[2]
  IFNγ release: significantly lower

## bioconjugate GAD 541-554: bioconjugate of GAD 541-554 (GTTMVSYQPLGDKV, SEQ ID NO: 6) (also: bioconjugate moiety, kind and site not given here)
[3]; splenocytes from vehicle treated NOD mice, treated in vitro for 36 hours (FIG. 31)
  number of IFNγ secreting cells: increase in number of IFNγ secreting cells
[3]; splenocytes of NOD mice primed for three consecutive weeks, then treated with either bioconjugate or bioconjugate with F4/80 for 36 hours
  number of IFNγ secreting cells: increase in number of IFNγ secreting cells
